Earlier results as cited in patent publication US20040241255A1, “Pharmaceutical composition containing valerina officinalis extract” (priority 2001, published 2004).

System: apnea during NREM sleep in rats
Conditions: injected intraperitoneally

| Structure (SMILES) | Suppression of apnea during NREM sleep |
| --- | --- |
| OC[C@H]1O[C@@H](n2cnc3c(N[C@H]4CCC[C@@H]4O)ncnc32)[C@H](O)[C@@H]1O (relative stereo) [N-[(1S,trans)-2-hydroxycyclopentyl]-adenosine] | dose-dependent suppression of apnea |
| C[C@H](Cc1ccccc1)Nc1ncnc2c1ncn2[C@@H]1O[C@H](CO)[C@@H](O)[C@H]1O [phenylisopropyl adenosine] | dose-dependent suppression of apnea |
| CCNC(=O)C1OC(n2cnc3c(N)nc(NCCc4ccc(CCC(=O)O)cc4)nc32)C(O)C1O.Cl (stereo not drawn) [2-p-(2-carboxyethyl)-phenethyl-amino-5′-N-ethylcarboxamido-adenosine hydrochloride] | dose-dependent suppression of apnea |
